From patent US8940774B2, “Tris-Quaternary Ammonium Salts and Methods for Modulating Neuronal Nicotinic Acetylcholine Receptors” (University of Kentucky Research Foundation, priority 2005, dated 2015)
Like-named read-outs stand apart in the source and are kept apart here.

How the values were obtained:
[1] = molecular target: T1, Rat Striatal Nicotinic Receptors (Rattus norvegicus, UniProt P09483+P12390); test: Inhibition of [3H]Nicotine (NIC) binding assay, rat striatal membranes; details: % inhibition at 100 nM concentration of analog, 3 nM [3H]NIC
T1 construct: from tissue; host or cells: rat striatal membranes
Experimental: Striata from two rats were dissected, pooled, and homogenized with a Tekmar polytron in 10 vol of ice-cold modified Krebs-HEPES buffer (20 mM HEPES, 118 mM NaCl, 4.8 mM, KCl, 2.5 mM CaCl2, 1.2 mM MgSO4, adjusted to pH 7.5). The homogenates were incubated at 37° C. for 5 minutes and centrifuged at 15,000 g for 20 minutes. The pellet was resuspended in 10 volumes of ice-cold MilliQ water, incubated for 5 minutes at 37° C., and centrifuged at 15,000 g for 20 minutes. The second pellet was then resuspended in 10 volumes of fresh ice-cold 10% Krebs-HEPES buffer, incubated at 37° C., and centrifuged at 15,000 g for 20 minutes. The latter sequence of resuspension, incubation and centrifugation was repeated. The pellet was frozen under fresh 10% Krebs-HEPES buffer and stored at −40° C. until assay. Upon assay, the pellet was resuspended in Krebs-HEPES buffer, incubated at 37° C. for 5 minutes, and centrifuged at 15,000 g for 20 minutes. The final pellet was resuspended in 3.6 mL ice-cold MilliQ water which provided for approximately 200 μg protein per 100 μL aliquot. Competition assays were performed in duplicate in a final volume of 200 μL Krebs-HEPES buffer containing […] Tris buffer (pH 7.5 at 4° C.). Reactions were initiated by addition of 100 μL of membrane suspension to 3 nM [^3H]NIC (50 μL) and one of at least nine concentrations of analog (50 μL). After a 90 minute incubation at 4° C., reactions were terminated by dilution of the samples with 3 mL of ice-cold Krebs-HEPES buffer followed immediately by filtration through Whatman GF/B glass fiber filters (presoaked in 0.5% polyethyleneimine) using a Brandel Cell Harvester. Filters were rinsed three times with 3 mL of ice-cold Krebs-HEPES buffer, transferred to scintillation vials, and 5 mL scintillation cocktail (Research Products international Corp., Mt. Prospect, Ill.) added. Nonspecific binding determined in triplicate was defined as binding in the presence of 10 μM NIC. Binding parameters were determined using the weighted, least squares non-linear regression. The tris-quaternary ammonium salts were evaluated for their ability to displace [^3H]NIC binding from rat striatal membranes.
(§1) Data are % inhibition at 100 nM concentration of analog for at least 1-3 independent experiments. Specific binding in the [^3H]NIC binding assay is calculated at the difference between the total binding of [^3H]NIC and nonspecific binding in the presence of 10 μM cold nicotine. Specific binding for the [^3H]MLA binding assay is calculated as the difference between the total binding of 2.5 nM [^3H]MLA to the receptors alone and its nonspecific binding in the presence of 1 μM cold MLA. Analog-induced inhibition of nicotine-evoked [^3H]DA release is calculated as a percent of that in the absence of analog.

[2] = molecular target: T2, α7-type neuronal nicotinic acetylcholine receptors (Rattus norvegicus, UniProt Q05941); test: Inhibition of [3H]Methyllycaconitine (MLA) binding assay, rat brain membranes; details: for inhibition at 0.1 µM: read-out: Inhibition of [3H]MLA binding
T2 construct: from tissue; host or cells: rat brain membranes (whole brain without cortex, striatum and cerebellum)
Experimental: Rat brain was dissected into the whole brain tissue without cortex, striatum and cerebellum and was frozen in liquid nitrogen and stored at −70° C. until use. The brain tissue was homogenized with a Tekmar Polytron (setting 40) in 20 volumes of ice-cold hypotonic buffer (2 mM HEPES, 14.4 mM NaCl, 0.15 mM KCl, 0.2 mM CaCl2 and 0.1 mM MgSO4, pH=7.5). The homogenate was incubated at 37° C. for 10 minutes and centrifuged at 25,000 g for 15 minutes at […] The pellet was washed 3 times more by resuspension in 20 volumes of the same buffer and centrifugation at the above parameters. The final pellet was stored at −20° C. under 4.6 mL of the incubation buffer and was suspended just before the incubation with radioligand.
The binding of [^3H]MLA to probe α7-type neuronal nicotinic acetylcholine receptors was measured using a modification of the method of Davies at al., “Characterisation of the binding of [^3H]methyllycaconitine (MLA): a radioligand for labelling α7-type neuronal nicotinic acetylcholine receptors,” Neuropharmacology, 38, 679-690 (1999). [^3H]MLA (25.4 Ci/mmol) was purchased from Tocris Cookson Ltd., Bristol, U.K. Binding was performed in duplicate, in a final volume of 250 μL of the incubation medium, containing 20 mM HEPES, 144 mM NaCl, 1.5 mM KCl, 2 mM CaCl2, 1 mM MgSO4 and 0.05% BSA, pH=7.5. Reaction was initiated by the addition of 100 μL of membrane suspension to the samples containing a desired concentration of test compounds and […] [^3H]MLA (final concentration) and incubated for 2 hours it room temperature. Total binding was measured in the absence of unlabelled ligand, and nonspecific binding was determined by the presence of 1 μM unlabelled MLA. The binding reaction was terminated by dilution of samples with 3 mL of ice-cold incubation buffer followed by immediate filtration through glass fiber filters (S&S, grade #32, presoaked in 0.5% polyethylenimine) using a Brandel harvester system. Filters were rinsed three times with 3 mL of ice-cold buffer, transferred to scintillation vials and 4 mL of scintillation cocktail was added. Protein was measured using the Bradford dye-binding procedure with bovine serum albumin as the standard.
The tris-quaternary ammonium salts were evaluated for their ability to displace [^3H]MLA binding from rat brain membranes.
as §1

[3] = tested on: NIC-evoked [3H]DA release from rat striatal slices; test: Nicotine-evoked [3H]dopamine release assay, superfused rat striatal slices; type: cell-based; details: 100 nM analog superfused 60 minutes prior to NIC (10 μM), percent of that in the absence of analog
Experimental: Rat striatal slices (500 μm thickness, 6-8 mg wet weight) were incubated for 30 minutes in Krebs buffer (118 mM NaCl, 4.7 mM KCl, 1.2 mM MgCl2, 1.0 mM NaH2PO4, 1.3 mM CaCl2, 11.1 mM glucose, 25 mM NaHCO3, 0.11 mM L-ascorbic acid and 0.004 mM disodium EDTA; pH 7.4, and saturated with 95% O2/5% CO2) in a metabolic shaker at 34° C. Slices were rinsed with 15 mL of fresh buffer and incubated for an additional 30 minutes in fresh buffer containing 0.1 μM [^3H]dopamine (DA; 6 slices/3 mL). Subsequently, slices were rinsed with 15 mL of fresh buffer and transferred to a glass superfusion chamber. Slices were superfused (1.0 mL/min) for 60 minutes with Krebs buffer containing nomifensine (10 μM) and pargyline (10 μM) and maintained at 34° C., pH 7.4 with continual aeration (95% O2/5% CO2). Two five minute samples (5 mL each) were collected to determine basal outflow of [^3H]DA. Analogs were added to the superfusion buffer after the collection of the second sample and remained in the buffer until 12 consecutive five minute samples were collected. Subsequently, S-(−)-nicotine (10 μM) was added to the buffer and an additional 12 consecutive five minute samples were collected. At the end of the experiment, each slice was solubilized and the [^3H] content of the tissue determined.
Radioactivity in the superfusate and tissue samples were determined by liquid scintillation spectroscopy. Fractional release for tritium collected in each sample was divided by the total tritium present at the time of sample collection and was expressed as a percentage of total tritium. Basal [^3H] outflow was calculated from the average of the tritium collected in the two five-minute samples just before addition of the analog. The sum of the increase in collected tritium resulting from either exposure to the test compound or exposure to S-(−)-nicotine in the absence cod presence of the test compound equaled total [^3H] overflow. [^3H] Overflow was calculated by subtracting the [^3H] outflow during an equivalent period of prestimulation from the values in samples collected during and after drug exposure. Inasmuch as the radiolabelled compounds were not separated and identified, the tritium in the superfusate is referred to as either [^3H] outflow or [^3H] overflow, rather than [^3H]DA. [^3H] Overflow primarily represents [^3H]DA in the presence of nomifesine and pargyline in the superfusion buffer. […]
Analogs were also evaluated for their ability to inhibit NIC evoked [^3H]DA release. In these experiments, the striatal slices were superfused for 60 minutes with 100 nM concentration of the analogs prior to NIC (10 μM) exposure. Antagonist activity was evaluated by comparing the NIC-evoked [^3H] overflow in the absence and presence of the analogs. The relative order of potency of the analogs for inhibition of NIC-evoked [^3H]DA release from rat striatal slices is illustrated in Table 1.
as §1

[4] = % inhibition at 100 nM concentration of analog, rat brain membranes, 2.5 nM [3H]MLA

T2 sequence (Q05941 23-502): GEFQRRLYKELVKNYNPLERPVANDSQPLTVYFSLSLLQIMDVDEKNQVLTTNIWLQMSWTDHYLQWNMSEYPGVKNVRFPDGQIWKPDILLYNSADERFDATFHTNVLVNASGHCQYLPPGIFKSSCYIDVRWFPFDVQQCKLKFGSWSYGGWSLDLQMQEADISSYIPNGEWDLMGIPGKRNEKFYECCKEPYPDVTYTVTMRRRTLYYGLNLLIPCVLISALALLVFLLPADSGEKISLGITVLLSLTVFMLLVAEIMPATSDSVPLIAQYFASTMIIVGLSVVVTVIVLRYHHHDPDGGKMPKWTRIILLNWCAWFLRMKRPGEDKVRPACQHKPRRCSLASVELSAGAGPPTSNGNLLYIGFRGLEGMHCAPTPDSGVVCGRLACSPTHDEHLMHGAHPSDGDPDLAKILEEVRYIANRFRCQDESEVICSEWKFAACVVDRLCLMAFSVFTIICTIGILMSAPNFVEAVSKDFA
T1 sequence (P09483 31-630): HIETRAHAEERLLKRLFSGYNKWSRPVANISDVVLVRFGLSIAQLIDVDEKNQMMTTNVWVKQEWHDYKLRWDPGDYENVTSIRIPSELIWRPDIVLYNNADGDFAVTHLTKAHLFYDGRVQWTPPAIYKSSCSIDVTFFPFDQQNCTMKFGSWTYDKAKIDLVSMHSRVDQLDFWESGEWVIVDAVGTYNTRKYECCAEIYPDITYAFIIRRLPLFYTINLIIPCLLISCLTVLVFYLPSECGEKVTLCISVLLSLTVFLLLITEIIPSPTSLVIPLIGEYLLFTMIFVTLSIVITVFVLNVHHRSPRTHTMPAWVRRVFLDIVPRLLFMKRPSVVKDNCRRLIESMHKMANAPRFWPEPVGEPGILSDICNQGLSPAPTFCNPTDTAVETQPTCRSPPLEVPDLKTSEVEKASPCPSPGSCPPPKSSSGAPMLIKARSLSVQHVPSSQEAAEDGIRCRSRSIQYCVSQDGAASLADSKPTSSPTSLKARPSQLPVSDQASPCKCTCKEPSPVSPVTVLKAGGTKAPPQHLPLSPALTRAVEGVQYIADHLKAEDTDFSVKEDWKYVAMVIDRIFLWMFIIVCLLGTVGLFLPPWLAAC
T1 sequence (P12390 25-500): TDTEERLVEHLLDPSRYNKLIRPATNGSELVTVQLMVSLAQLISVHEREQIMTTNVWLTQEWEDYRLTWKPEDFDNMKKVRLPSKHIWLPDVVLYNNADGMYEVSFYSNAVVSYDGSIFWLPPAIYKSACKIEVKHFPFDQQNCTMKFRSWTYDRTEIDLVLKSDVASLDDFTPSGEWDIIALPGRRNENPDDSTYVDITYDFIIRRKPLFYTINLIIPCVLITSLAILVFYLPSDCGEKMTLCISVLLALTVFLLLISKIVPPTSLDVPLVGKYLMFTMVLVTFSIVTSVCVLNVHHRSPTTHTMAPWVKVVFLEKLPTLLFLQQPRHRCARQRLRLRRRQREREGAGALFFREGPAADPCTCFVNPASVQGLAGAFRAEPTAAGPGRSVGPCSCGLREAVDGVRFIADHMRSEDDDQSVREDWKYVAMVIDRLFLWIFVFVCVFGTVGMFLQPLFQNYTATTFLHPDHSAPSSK

Compound	inhibition at 0.1 µM [1]	inhibition at 0.1 µM [2, 4]	inhibition at 0.1 µM [3]	inhibition at 0.1 µM [2]	Ki ([2]; read-out: K1 value, displacement of [3H]MLA binding)
Cc1ccc[n+](CCCC#Cc2cc(C#CCCC[n+]3cccc(C)c3)cc(C#CCCC[n+]3cccc(C)c3)c2)c1 [GZ550A, 1,3,5-tris-[5-(3-picolinium)-pent-1-ynyl]-benzene tribromide]	10 ± 1.9%	0%	46%	–	–
C(#Cc1cc(C#CCCC[n+]2cccc(-c3ccccc3)c2)cc(C#CCCC[n+]2cccc(-c3ccccc3)c2)c1)CCC[n+]1cccc(-c2ccccc2)c1 [GZ550B, 1,3,5-tris-[5-(3-phenyl-pyridinium)-pent-1-ynyl]-benzene tribromide]	15 ± 0.9%	39 ± 2.2%	49%	–	–
C(#Cc1cc(C#CCCC[n+]2cccc3ccccc32)cc(C#CCCC[n+]2cccc3ccccc32)c1)CCC[n+]1cccc2ccccc21 [GZ552A, 1,3,5-tris-[5-(1-quinolinium)-pent-1-ynyl]-benzene tribromide]	7 ± 3.8%	21 ± 6%	72%	–	–
C(#Cc1cc(C#CCCC[n+]2ccc3ccccc3c2)cc(C#CCCC[n+]2ccc3ccccc3c2)c1)CCC[n+]1ccc2ccccc2c1 [GZ552B, 1,3,5-tris-[5-(2-isoquinolinium)-pent-1-ynyl]-benzene tribromide]	9.2 ± 5%	4.5 ± 2.6%	49%	–	–
Cc1cc(C)c[n+](CCCC#Cc2cc(C#CCCC[n+]3cc(C)cc(C)c3)cc(C#CCCC[n+]3cc(C)cc(C)c3)c2)c1 [GZ553A, 1,3,5-tris-[5-(3,5-lutidinium)-pent-1-ynyl]-benzene tribromide]	8.9 ± 2.9%	0%	31%	–	–
Cc1cc[n+](CCCC#Cc2cc(C#CCCC[n+]3ccc(C)c(C)c3)cc(C#CCCC[n+]3ccc(C)c(C)c3)c2)cc1C [GZ553B, 1,3,5-tris-[5-(3,4-lutidinium)-pent-1-ynyl]-benzene tribromide]	4 ± 1.4%	1.8 ± 1.8%	0%	–	–
Cc1cccc[n+]1CCCC#Cc1cc(C#CCCC[n+]2ccccc2C)cc(C#CCCC[n+]2ccccc2C)c1 [GZ554A, 1,3,5-tris-[5-(2-picolinium)-pent-1-ynyl]-benzene tribromide]	4.5 ± 2%	0%	68%	–	–
Cc1cc[n+](CCCC#Cc2cc(C#CCCC[n+]3ccc(C)cc3)cc(C#CCCC[n+]3ccc(C)cc3)c2)cc1 [GZ554B, 1,3,5-tris-[5-(4-picolinium)-pent-1-ynyl]-benzene tribromide]	21 ± 4.5%	0%	34%	–	–
Cc1ccc[n+](CCCCCc2cc(CCCCC[n+]3cccc(C)c3)cc(CCCCC[n+]3cccc(C)c3)c2)c1 [GZ555A, 1,3,5-tris-[5-(3-picolinium)-pentyl]-benzene tribromide]	14 ± 6.1%	1.2 ± 1.2%	42%	–	–
Cc1cccc[n+]1CCCCCc1cc(CCCCC[n+]2ccccc2C)cc(CCCCC[n+]2ccccc2C)c1 [GZ555B, 1,3,5-tris-[5-(2-picolinium)-pentyl]-benzene tribromide]	8.6 ± 7.2%	0%	25%	–	–
Cc1cc[n+](CCCCCc2cc(CCCCC[n+]3ccc(C)cc3)cc(CCCCC[n+]3ccc(C)cc3)c2)cc1 [GZ555C, 1,3,5-tris-[5-(4-picolinium)-pentyl]-benzene tribromide]	6 ± 3.4%	0%	37 ± 17%	–	–
c1ccc2c(c1)ccc[n+]2CCCCCc1cc(CCCCC[n+]2cccc3ccccc32)cc(CCCCC[n+]2cccc3ccccc32)c1 [GZ556A, 1,3,5-tris-[5-(1-quinolinium)-pentyl]-benzene tribromide]	5.7 ± 5.7%	–	8 ± 6.4%	6.8 ± 0.9%	–
c1ccc2c[n+](CCCCCc3cc(CCCCC[n+]4ccc5ccccc5c4)cc(CCCCC[n+]4ccc5ccccc5c4)c3)ccc2c1 [GZ556B, 1,3,5-tris-[5-(2-isoquinolinium)-pentyl]-benzene tribromide]	8.4 ± 7.6%	2.5 ± 1.5%	28 ± 11%	–	–
α-bungarotoxin [reference compound]	–	–	–	–	0.0286 ± 0.0054 µM
